According to patent US20230279020A9, “CARM1 INHIBITORS AND USES THEREOF” (Epizyme, Inc., priority 2013, published 2023):

target: Human CARM1 (PRMT4) (Homo sapiens (Human), UniProt Q86X55); assay: CARM1 enzyme assay on peptide substrate (3H-SAM Flashplate); conditions: Biochemical potencies, classification codes; read-out: Biochem IC50
Text: S-adenosylmethionine (SAM), S-adenosylhomocysteine (SAH), bicine, Tween20, dimethylsulfoxide (DMSO), bovine skin gelatin (BSG), sodium butyrate and Tris(2-carboxyethyl)phosphine hydrochloride solution (TCEP) were purchased from Sigma-Aldrich at the highest level of purity possible. ^3H-SAM was purchase from American Radiolabeled Chemicals with a specific activity of 80 Ci/mmol. 384-well streptavidin Flashplates were purchased from PerkinElmer.
Peptide representative of human histone H3 residues 16-30 was synthesized with an N-terminal linker-affinity tag motif and a C-terminal amide cap by 21st Century Biochemicals. […] The sequence was Biot-Ahx-[…]-amide and contained a monomethylated arginine at position 26 (SEQ ID NO.:1).
The gene sequence encoding isoform1 containing a deletion of amino acids 539-561 was amplified subsequently and subcloned into pFastBacMam (Viva Biotech).
Recombinant baculovirus were generated according to Bac-to-Bac kit instructions (Life Technologies). Protein over-expression was accomplished by infecting exponentially growing HEK 293F cell culture at 1.3×10^6cell/ml with virus (MOI=10) in the presence of 8 mM sodium butyrate. Infections were carried out at 37° C. for 48 hours, harvested by centrifugation, and stored at −80° C. for purification.
Expressed full-length human Flag- and His-tagged CARM1 protein was purified from cell paste by anti-flag M2 affinity chromatography with resin equilibrated with buffer containing 20 mM Tris, 150 mM NaCl, 5% glycerol, pH 7.8. Column was washed with 500 mM NaCl in buffer A and Flag-CARM1-His was eluted with 200 ug/ml FLAG peptide in buffer A. Pooled fractions were dialyzed in 20 mM Tris, 150 mM NaCl, 5% glycerol and 1 mM DTT, pH 7.8.
The assays were all performed in a buffer consisting of 20 mM Bicine (pH=7.6), 1 mM TCEP, 0.005% BSG, and 0.002% Tween 20, prepared on the day of use. Compounds in 100% DMSO (1 ul) were spotted into a polypropylene 384-well V-bottom plates (Greiner) using a Platemate Plus outfitted with a 384-channel head (Thermo Scientific). DMSO (1 ul) was added to Columns 11, 12, 23, 24, rows A-H for the maximum signal control and 1 ul of SAH, a known product and inhibitor of CARM1, was added to columns 11, 12, 23, 24, rows I-P for the minimum signal control. A cocktail (40 ul) containing the CARM1 enzyme was added by Multidrop Combi (Thermo-Fisher). The compounds were allowed to incubate with CARM1 for 30 min at room temperature, then a cocktail (10 ul) containing ^3H-SAM and peptide was added to initiate the reaction (final volume=51 ul). The final concentrations of the components were as follows: CARM1 was 0.25 nM, ^3H-SAM was 30 nM, peptide was 250 nM, SAH in the minimum signal control wells was 1 mM, and the DMSO concentration was 2%. The assays were stopped by the addition of non-radiolabeled SAM (10 ul) to a final concentration of 300 uM, which dilutes the ^3H-SAM to a level where its incorporation into the peptide substrate is no longer detectable. 50 ul of the reaction in the 384-well polypropylene plate was then transferred to a 384-well Flashplate and the biotinylated peptides were allowed to bind to the streptavidin surface for at least 1 hour before being washed once with 0.1% Tween20 in a Biotek ELx405 plate washer. The plates were then read in a PerkinElmer TopCount plate reader to measure the quantity of ^3H-labeled peptide bound to the Flashplate surface, measured as disintegrations per minute (dpm) or alternatively, referred to as counts per minute (cpm).
where dpm=disintegrations per minute, cmpd=signal in assay well, and min and max are the respective minimum and maximum signal controls.
where top and bottom are the normally allowed to float, but may be fixed at 100 or 0 respectively in a 3-parameter fit. The Hill Coefficient normally allowed to float but may also be fixed at 1 in a 3-parameter fit. Y is the % inhibition and X is the compound concentration.

Human CARM1 (PRMT4), sequence (Q86X55 other isoform, or with tags, fused parts or gaps isoform Q86X55-1): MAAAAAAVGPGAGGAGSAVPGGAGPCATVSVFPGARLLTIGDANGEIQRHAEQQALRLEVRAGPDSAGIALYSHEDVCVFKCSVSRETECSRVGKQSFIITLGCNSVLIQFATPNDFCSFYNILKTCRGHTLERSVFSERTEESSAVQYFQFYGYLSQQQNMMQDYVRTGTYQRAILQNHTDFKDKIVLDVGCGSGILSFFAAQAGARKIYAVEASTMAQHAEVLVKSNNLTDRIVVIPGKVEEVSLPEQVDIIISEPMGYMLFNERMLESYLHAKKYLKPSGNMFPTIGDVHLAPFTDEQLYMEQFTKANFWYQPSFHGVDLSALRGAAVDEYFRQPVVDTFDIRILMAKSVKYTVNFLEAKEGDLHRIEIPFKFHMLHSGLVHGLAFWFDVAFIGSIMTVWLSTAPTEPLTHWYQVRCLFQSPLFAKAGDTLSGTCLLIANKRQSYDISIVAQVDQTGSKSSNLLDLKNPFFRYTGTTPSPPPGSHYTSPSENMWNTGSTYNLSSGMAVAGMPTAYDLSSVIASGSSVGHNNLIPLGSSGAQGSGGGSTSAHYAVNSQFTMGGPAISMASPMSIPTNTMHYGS

IC50 [µM]	SMILES
< 0.1	CNCC(O)COc1cccc(-c2nc(N[C@@H]3CC[C@@H](O)C3)cc(-c3c(C)noc3C)n2)c1 (stereo partly drawn) [Example 44-1a]
< 0.1	CNC[C@@H](O)COc1ccc(Cl)c(-c2nc(N[C@H]3CCN(C4CC4)C[C@H]3F)c(C)c(-c3c(C)noc3C)n2)c1 [Example 44-3]
< 0.1	CNCC(O)COc1cc(Cl)cc(-c2nc(N[C@H]3CCOC3)c(C)c(-c3ccncc3)n2)c1 (stereo partly drawn) [Example 45-1]
< 0.1	CNCC(O)COc1cccc(-c2nc(NC3CC(C(=O)OC)C3)cc(-c3c(C)noc3C)n2)c1 (stereo not drawn) [Example 45-1a]
< 0.1	CNCC(O)COc1ccc(Cl)c(-c2nc(NC3CC4(C3)CN(C(=O)OC)C4)c(C)c(-c3c(C)noc3C)n2)c1 (stereo not drawn) [Example 45-3]
< 0.1	CNCC(O)COc1cccc(-c2nc(NC3CCOCC3)cc(-c3cc4ccccc4o3)n2)c1 (stereo not drawn) [Example 46-1]
< 0.1	CNCC(O)COc1ccc(Cl)c(-c2nc(NC3CC(C)N(C(=O)OC)C(C)C3)c(C)c(-c3c(C)noc3C)n2)c1 (stereo not drawn) [Example 46-3]
< 0.1	CNCC(O)COc1cc(Cl)cc(-c2nc(NC3CCOCC3)c(C)c(-c3c(C)noc3C)n2)c1 (stereo not drawn) [Example 47-1a]
< 0.1	CNCC(O)COc1cccc(-c2nc(-c3c(C)noc3C)c(C)c(N3CCNC(C(F)F)C3)n2)c1 (stereo not drawn) [Example 47-3]
< 0.1	CNCC(O)COc1cccc(-c2nc(-c3ccc4c(c3)OCCO4)cc(N(C)CCC#N)n2)c1 (stereo not drawn) [Example 48-1]
< 0.1	CCN1CCC[C@H]1CNc1nc(-c2cc(OC[C@@H](O)CNC)ccc2Cl)nc(-c2c(C)noc2C)c1C [Example 48-3]
< 0.1	CNCC(O)COc1cccc(-c2nc(-c3ccc(OC)c(OC)c3)cc(N(C)CCC#N)n2)c1 (stereo not drawn) [Example 49-1]
< 0.1	CNCC(O)COc1cccc(-c2nc(Nc3cnc(C)nc3)cc(-c3c(C)noc3C)n2)c1 (stereo not drawn) [Example 49-1a]
< 0.1	CCOC(=O)N1CCC[C@@H]1CNc1nc(-c2cc(OC[C@@H](O)CNC)ccc2Cl)nc(-c2c(C)noc2C)c1C [Example 49-3]
< 0.1	CNCC(O)COc1cccc(-c2nc(NCCCN3CCCC3=O)cc(-c3cncnc3)n2)c1 (stereo not drawn) [Example 50-1]
< 0.1	CNCC(O)COc1cccc(-c2nc(-c3c(C)noc3C)cc(N(C)c3cncnc3)n2)c1 (stereo not drawn) [Example 50-1a]
< 0.1	CNCC(O)COc1cccc(-c2nc(-c3c(C)noc3C)cc(N(C)c3cnc(OC)nc3)n2)c1 (stereo not drawn) [Example 51-1a]
< 0.1	CNCC(O)COc1cccc(-c2nc(NC3CCOCC3)cc(-c3cccc4ncccc34)n2)c1 (stereo not drawn) [Example 53-1]
< 0.1	CNCC(O)COc1cccc(-c2nc(SC)c(C)c(-c3c(C)noc3C)n2)c1 (stereo not drawn) [Example 53-1a]
< 0.1	CNC[C@H](O)COc1ccc(Cl)c(-c2nc(N[C@H]3C[C@H](OC)C3)c(C)c(-c3c(C)noc3C)n2)c1 [Example 53-3]
< 0.1	Cc1noc(C)c1-c1nc(-c2cccc(OCC(O)CN)c2)nc(NC2CCOCC2)c1C (stereo not drawn) [Example 54-1a]
< 0.1	CNC[C@H](O)COc1ccc(Cl)c(-c2nc(N[C@H]3C[C@@H](OC)C3)c(C)c(-c3c(C)noc3C)n2)c1 [Example 54-3]
< 0.1	CNCC(O)COc1cccc(-c2nc(-c3cnc4[nH]ccc4c3)cc(N(C)C3CCOCC3)n2)c1 (stereo not drawn) [Example 55-1]
< 0.1	CNC[C@H](O)COc1cccc(-c2nc(NC3CCOCC3)c(C)c(-c3c(C)noc3C)n2)c1 [Example 55-1a]
< 0.1	CNC[C@H](O)COc1ccc(Cl)c(-c2nc(-c3c(C)noc3C)c(C)c(N3CC4(CCN(C5CC5)CC4)C3)n2)c1 [Example 55-3]
< 0.1	CNCC(O)COc1cccc(-c2nc(-c3ccc(S(C)(=O)=O)cc3)cc(N(C)CCC#N)n2)c1 (stereo not drawn) [Example 56-1]

IC50 [µM]	SMILES
< 0.1	CNC[C@@H](O)COc1cccc(-c2nc(NC3CCOCC3)c(C)c(-c3c(C)noc3C)n2)c1 [Example 56-1a]
< 0.1	CCOC(=O)N1CCOC[C@@H]1CNc1nc(-c2cc(OC[C@H](O)CNC)ccc2Cl)nc(-c2c(C)noc2C)c1Cl [Example 56-3]
< 0.1	CNCC(O)COc1cccc(-c2nc(-c3ccnc(OC)c3)cc(N(CCOC)CCOC)n2)c1 (stereo not drawn) [Example 57-1]
< 0.1	CNCC(O)COc1cccc(-c2nc(-c3c(C)noc3C)c(C)c(N3CCS(=O)(=O)CC3)n2)c1 (stereo not drawn) [Example 57-1a]
< 0.1	CNCC(O)COc1ccc(Cl)c(-c2nc(N[C@H]3CCC[C@@H](OC)C3)c(C)c(-c3c(C)noc3C)n2)c1 (stereo partly drawn) [Example 57-3]
< 0.1	CNC[C@H](O)COc1ccc(Cl)c(-c2nc(NC[C@H]3COCCN3C(=O)OC)c(C)c(-c3c(C)noc3C)n2)c1 [Example 58-3]
< 0.1	CNCC(O)COc1cccc(-c2nc(-c3ccc4c(c3)OCCO4)cc(N(C)C3CCOCC3)n2)c1 (stereo not drawn) [Example 59-1]
< 0.1	CNCC(O)COc1cccc(-c2nc(NC3CCS(=O)(=O)CC3)c(C)c(-c3c(C)noc3C)n2)c1 (stereo not drawn) [Example 59-1a]
< 0.1	CCOC(=O)N1CCOC[C@H]1CNc1nc(-c2cc(OC[C@@H](O)CNC)ccc2F)nc(-c2c(C)noc2C)c1C [Example 59-3]
< 0.1	CNCC(O)COc1cccc(-c2nc(NCCCN3CCCC3=O)cc(-c3ccnc(OC)c3)n2)c1 (stereo not drawn) [Example 60-1]
< 0.1	CNCC(O)COc1cccc(-c2nc(NC3CCS(=O)(=O)CC3)cc(-c3c(C)noc3C)n2)c1 (stereo not drawn) [Example 60-1a]
< 0.1	CCOC(=O)N1CCOC[C@H]1CNc1nc(-c2cc(OC[C@H](O)CNC)ccc2F)nc(-c2c(C)noc2C)c1C [Example 60-3]
< 0.1	CNCC(O)COc1cccc(-c2nc(-c3c(C)noc3C)cc(N(C)c3cnc(C)nc3)n2)c1 (stereo not drawn) [Example 61-1a]
< 0.1	CCOC(=O)N1CCOC[C@@H]1CNc1nc(-c2cc(OC[C@@H](O)CNC)ccc2F)nc(-c2c(C)noc2C)c1C [Example 61-3]
< 0.1	CNCC(O)COc1cccc(-c2nc(-c3ccc4c(c3)OCCO4)cc(N(CCOC)CCOC)n2)c1 (stereo not drawn) [Example 62-1]
< 0.1	CCOC(=O)N1CCOC[C@@H]1CNc1nc(-c2cc(OC[C@H](O)CNC)ccc2F)nc(-c2c(C)noc2C)c1C [Example 62-3]
< 0.1	CNC[C@H](O)COc1ccc(F)c(-c2nc(N[C@H]3CCN(C(=O)OC)C[C@H]3F)c(C)c(-c3c(C)noc3C)n2)c1 [Example 63-3]
< 0.1	CNCC(O)COc1cccc(-c2nc(-c3ccc(OC)c(OC)c3)cc(N(CCOC)CCOC)n2)c1 (stereo not drawn) [Example 64-1]
< 0.1	CNC[C@@H](O)COc1ccc(F)c(-c2nc(N[C@H]3CCN(C(=O)OC)C[C@H]3F)c(C)c(-c3c(C)noc3C)n2)c1 [Example 64-3]
< 0.1	CNC[C@H](O)COc1ccc(Cl)c(-c2nc(N[C@H]3CCN(C(=O)OC)C[C@H]3F)c(C)c(-c3c(C)noc3C)n2)c1 [Example 65-3]
< 0.1	CNCC(O)COc1cccc(-c2nc(N[C@@H]3CCOC3)c(C)c(-c3c(C)noc3C)n2)c1 (stereo partly drawn) [Example 66-1a]
< 0.1	CNC[C@H](O)COc1ccc(Cl)c(-c2nc(N[C@@H]3CCN(C(=O)OC)[C@@H](C)C3)c(C)c(-c3c(C)noc3C)n2)c1 [Example 66-3]
< 0.1	CNCC(O)COc1cccc(-c2nc(N[C@H]3C[C@@](C)(O)C3)cc(-c3c(C)noc3C)n2)c1 (stereo partly drawn) [Example 67-1a]
< 0.1	CCS(=O)(=O)N1CCC(Nc2nc(-c3cc(OC[C@@H](O)CNC)ccc3Cl)nc(-c3c(C)noc3C)c2C)CC1 [Example 67-3]
< 0.1	CNCC(O)COc1cccc(-c2nc(-c3c(C)noc3C)cc(N3CCN(CCF)CC3)n2)c1 (stereo not drawn) [Example 68-1a]
